The values below come from patent publication US20060116375A1, “4-[(2,4-Dichloro-5-methoxyphenyl)amino]-6-alkoxy-7-ethynyl-3-quinolinecarbonitriles for the treatment of ischemic injury” (Wyeth, priority 2004, published 2006).

Where “and” joins values, the source holds several entries; their conditions need not be identical. Identical values can stand only once.

Experiment [1] deals with Rat2 fibroblasts stably transformed with v-Src/Hu c-Src fusion gene (Homo sapiens, UniProt P12931, cells depend on it, form not given). The experiment is described as follows: Anchorage independent Src-transformed fibroblast proliferation assay. The class given is cell-based, rat. To be noted: suspension growth, MTS on Day 5; multiple entries = tested multiple times; read-out: Src cell IC50. The method, then:
Anchorage Independent Src-transformed Fibroblast Proliferation Assay
Rat2 fibroblasts stably transformed with a plasmid containing a CMV promotor controlled v-Src/Hu c-Src fusion gene in which the catalytic domain of human c-Src was inserted in place of the v-Src catalytic domain in the v-Src gene are used for the measurement of src dependent suspension growth. Ultra-low cluster plates (Costar # 3474) are seeded with 10,000 cells per well on Day 1. Alternatively, Ultra-low cluster plates (Costar 3474) treated with Sigmacote (Sigma), rinsed with 70% ethanol, after drying in the hood, are seeded with 5000 cells.

Experiment [2] has as its target Recombinant human Src enzyme (Homo sapiens, UniProt P12931). The experiment can be described thus: Src kinase assay (LANCE homogeneous FRET). It counts as biochemical. The note with it: 100 μM ATP, 70 min at 37° C.; multiple entries = tested multiple times. As for the experimental part:
Recombinant human Src enzyme was obtained from PanVera (P3044). […] Homogeneous fluorescence resonance energy transfer kinase assays were performed using the europium/APC detection format (LANCE, Perkin Elmer). Src enzyme (10 ng) was mixed with biotinylated peptide (final concentration 2 μM), 50 mM Hepes (pH 7.5), 10 mM MgCl2, 20 ug/ml BSA, 0.001% Brij-35 (Sigma), 100 μM ATP, 1% DMSO. The kinase reaction was incubated for 70 min at 37° C. The reaction was stopped with EDTA at a final concentration of 30 mM EDTA/25 mM Hepes (pH 7.5)/10 μg/ml BSA. The mixture was combined with Eu-labeled anti-phosphotyrosine antibody PT66 (Perkin Elmer, AD0068) and Streptavidin Surelight-APC (Perkin Elmer, CR130-100) in 50 mM Hepes (pH 7.5)/20 μg/ml BSA, and incubated for 30 min according to manufacturer's specifications. Fluorescence intensity at 665 nm was used to monitor the extent of the kinase reaction. Multiple entries for a given compound indicate that it was tested multiple times.
(In TR-FRET formats the signal depends on donor and acceptor labels being close together.)

The test system of experiment [3] is rat model of intracerebral hemorrhage. The experiment is described as follows: Rat model of intracerebral hemorrhage induced by intrastriatal infusion of collagenase. The class given is in vivo. To be noted: measured 24 hours later. The method, then:
IV Administration of Example 2 Provides Neuroprotection in the Model of Hemorrhagic Stroke
Example 2 was tested in a rat model of intracerebral hemorrhage induced by intrastriatal infusion of collagenase substantially as described by Rosenberg et al., Stroke, 1990, 20:801. In this model, infusion of collagenase into caudate nucleus leads to proteolytic destruction of collagen in basal lamina of blood vessels and induces intracranial bleeding and edema peaking in 24-48 hours. Example 2 was administered at 4 hours post-induction of hemorrhagic stroke as a single i.v injection at the doses of 10 mg/kg or 30 mg/kg. 24 hours later brain water content was determined as a measure of edema.

Experiment [4] concerns rat model of transient focal ischemia. The experiment can be described thus: Rat model of transient focal ischemia (90 min MCA occlusion, reperfusion 48 hours). It counts as in vivo, Wistar rats. The note with it: for reduction in infarct volume as a percent of control: 48 hours post MCA occlusion, statistical error 7-10%; for improved recovery from stroke-induced neurological deficits, as a percent of control: evaluated over 48 hours, statistical error 10-12%. The method, then: IV Administration of Example 2 Provides Neuroprotection in a Model of Transient Focal Ischemia
Example 2 was tested in a rat model of transient focal ischemia. Wistar rats were subjected to a 90 min occlusion of the middle cerebral artery (MCA) using an intraluminal suture approach as described by Longa et al., Stroke 1989, 20:84 followed by reperfusion for 48 hours. Four hours after the initial onset of ischemia, animals received compound of Example 2 as a single i.v. bolus in 5% dextrose, 0.9% lactic acid at pH 4.5-5.0 (3 mg/kg, 10 mg/kg or 30 mg/kg). Following reperfusion, the animals were evaluated over a 48 hour period for neurological function deficit. Infarct size was measured following sacrifice at 48 hours post MCA occlusion.

Experiment [5] concerns rat model of permanent occlusion of middle cerebral artery. The experiment can be described thus: Rat model of permanent occlusion of middle cerebral artery (permanent focal ischemia). It counts as in vivo. The method, then: IV Administration of Example 2 Provides Neuroprotection and Improves Long-Term Neurological Recovery in a Model of Permanent Focal Ischemia
Example 2 was tested in a rat model of permanent occlusion of middle cerebral artery, without the reperfusion, substantially as described by Chen et al., Stroke, 1986, 17:738. This is a more stringent model than the transient focal ischemia. Two hours following an electrocoagulation of middle cerebral artery, vehicle or Example 2 were administered at 10 mg/kg i.v followed by 3 additional doses of 10 mg/kg iv administered at 4, 24 and 26 hours post-induction of stroke. In one study, volume of infracted brain tissue was evaluated at 48 hour post-stroke. In a second study, animals were subjected to testing of sensori-motor function based on tactile and propioceptive limb placement substantially as described by DeRyck et al., Brain Res. 1992, 573:44 at three day intervals over a timecourse of three weeks following stroke. In the animals treated with Example 2 a statistically significant reduction by 24% of the infarct volume was found at 48 hours post-induction of stroke.

Setting [6] is: 10 mg/kg single i.v. bolus 4 hours after onset of ischemia.
The mark [7] stands for this setting: 30 mg/kg single i.v. bolus 4 hours after onset of ischemia.

Sequence of Rat2 fibroblasts stably transformed with v-Src/Hu c-Src fusion gene (P12931 whole entry, change not shown, the tested form may be a part): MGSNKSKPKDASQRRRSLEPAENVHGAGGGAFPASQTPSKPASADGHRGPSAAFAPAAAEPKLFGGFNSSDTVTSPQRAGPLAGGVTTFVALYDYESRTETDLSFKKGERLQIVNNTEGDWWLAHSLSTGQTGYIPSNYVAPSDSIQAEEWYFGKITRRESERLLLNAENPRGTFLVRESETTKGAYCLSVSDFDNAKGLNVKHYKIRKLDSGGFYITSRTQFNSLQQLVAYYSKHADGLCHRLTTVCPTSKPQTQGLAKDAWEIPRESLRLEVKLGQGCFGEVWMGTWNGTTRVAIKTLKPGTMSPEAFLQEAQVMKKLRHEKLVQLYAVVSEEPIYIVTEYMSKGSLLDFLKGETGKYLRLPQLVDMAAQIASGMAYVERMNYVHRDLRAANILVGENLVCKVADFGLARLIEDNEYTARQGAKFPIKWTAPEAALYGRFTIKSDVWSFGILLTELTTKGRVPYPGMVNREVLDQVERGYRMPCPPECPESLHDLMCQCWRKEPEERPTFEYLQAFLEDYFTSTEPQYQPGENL
Sequence of Recombinant human Src enzyme (P12931 whole entry): as the sequence (P12931 whole entry, change not shown, the tested form may be a part) above

As a reminder, the IC50 is the concentration needed to halve the response being measured. Regarding `CCOc1cc2c(Nc3cc(OC)c(Cl)cc3Cl)c(C#N)cnc2cc1C#CCCN1CCN(C)CC1` [Example 5, 4-[(2,4-Dichloro-5-methoxyphenyl)amino]-6-ethoxy-7-[4-(4-methylpiperazin-1-yl)but-1-ynyl]-3-quinolinecarbonitrile], in experiment [1], the GI50 is 96 nM and 183 nM and 154 nM and 103 nM. The IC50 in experiment [2] was 6.5 nM and 2.8 nM.

Turning to `COc1cc(Nc2c(C#N)cnc3cc(C#CCCN4CCN(C)CC4)c(OC)cc23)c(Cl)cc1Cl` [Example 2, 4-[(2,4-Dichloro-5-methoxyphenyl)amino]-6-methoxy-7-[4-(4-methylpiperazin-1-yl)but-1-ynyl]-3-guinolinecarbonitrile], the GI50 in experiment [1] was 71 nM and 70 nM and 77 nM. Further, the “reduction of post-hemorrhagic brain edema (brain water content)” value in experiment [3] (10 mg/kg single i.v. injection 4 hours post-induction) is listed as 18%; in experiment [3] (30 mg/kg single i.v. injection 4 hours post-induction), 24%. The “reduction in infarct volume as a percent of control” value in experiment [4] (setting [6]) is 32%; in experiment [4] (setting [7]), 40%. The “improved recovery from stroke-induced neurological deficits, as a percent of control” value turned out to be 35% in experiment [4] (setting [6]) and 53% in experiment [4] (setting [7]). Moreover, in experiment [5] (10 mg/kg i.v. at 2, 4, 24 and 26 hours post-induction of stroke, 48 hours post-stroke), the “reduction of the infarct volume” value stood at 24%. In addition, the “long-term sensorimotor recovery from neurological deficits (limb placement)” value in experiment [5] (10 mg/kg i.v. at 2, 4, 24 and 26 hours post-stroke, tested at three day intervals over three weeks) was “significantly improved long-term sensorimotor recovery”. In experiment [2], the IC50 was 3.5 nM and 4.2 nM.

In the case of `COc1cc(Nc2c(C#N)cnc3cc(C#CCCN4CCOCC4)c(OC)cc23)c(Cl)cc1Cl` [Example 3, 4-[(2,4-Dichloro-5-methoxyphenyl)amino]-6-methoxy-7-(4-morpholin-4-ylbut-1-ynyl)-3-guinolinecarbonitrile], the GI50 in experiment [1] was 206 nM and 183 nM. Moreover, the IC50 in experiment [2] was 4 nM and 4.1 nM.

With `COc1cc(Nc2c(C#N)cnc3cc(C#CCCN4CCNCC4)c(OC)cc23)c(Cl)cc1Cl` [Example 4, 4-[(2,4-Dichloro-5-methoxyphenyl)amino]-6-methoxy-7-(4-Piperazin-1-ylbut-1-ynyl)-3-quinolinecarbonitrile], the GI50 in experiment [1] was 435 nM and 605 nM. Also, the 50% inhibitory concentration (IC50) in experiment [2] is 5.9 nM and 4.8 nM.

With `COc1cc(Nc2c(C#N)cnc3cc(C#CCCN(C)C)c(OC)cc23)c(Cl)cc1Cl` [Example 1, 4-[(2,4-Dichloro-5-methoxyphenyl)amino]-7-[4-(dimethylamino)but-1-ynyl]-6-methoxy-3-guinolinecarbonitrile], the GI50 in experiment [1] is 252 nM and 240 nM. Further, the IC50 in experiment [2] is 5 nM and 4.7 nM.
